Test results reported in PMC4550478, “Metronidazole-triazole conjugates: Activity against Clostridium difficile and parasites” (European Journal of Medicinal Chemistry, 2015).
Converted amounts (≈) assume the structure as drawn. Like-named read-outs stand apart in the source and are kept apart here.

Tests used:
[1] = MIC against ESKAPE pathogens, aerobic; assay type: cell-based; details: aerobic conditions, single concentration screen, n = 3; read-out: MIC ESKAPE bacteria
Protocol: All compounds were tested for activity against a set of anaerobic C. difficile bacteria (630 ATCC BAA-1382, NAP1/027 M7404, NAP1/027 ATCC BAA-1803, VPI10463 ATCC 43255, CD26A54_S and CD26A54_R) and representative ESKAPE pathogens S. aureus (MRSA ATCC 43300), E. coli (ATCC 25922), K. pneumoniae (ATCC 700603), A. baumannii (ATCC 19606) and P. aeruginosa (ATCC 27853) using a standard broth microdilution assay. Selected compounds were tested for activity against H. pylori strains (26695, and clinical isolates MtzS 13/25, MtzR 98/285 and MtzR 13/61) using agar plate dilution, and for antimicrobial activity against twelve Gram-positive bacterial strains: Enterococcus faecalis (VanA clinical isolate), Enterococcus faecium (MDR VanA ATCC 51559), Streptococcus pneumoniae (MDR ATCC 700677), S. aureus (MRSA ATCC 43300, MRSA clinical isolate, MRSA/DRSA clinical isolate, GISA NARSA NRS 1, GISA NARSA NRS 17, VRSA NARSA VRS1, VRSA NARSA VRS4 and VRSA NARSA VRS10) using broth microdilution. C. difficile strains were grown at 37 °C in a COY anaerobic chamber (5% H2, 10% CO2, 85% N2). H. pylori strains were grown at 37 °C under a microaerobic atmosphere (5% O2, 10% CO2). All facultative anaerobic bacteria were grown at 37 °C with normal atmospheric oxygen levels. […] Positive growth control of bacteria and DMSO as well as a negative control of only media were included for every plate. Full assay details are provided in the supplementary information.
MICs were determined by a two-fold serial broth micro dilution according to the recommendation of CLSI standards with an inoculum of 5 × 10^5 CFU/mL^4 The compounds along with standard antibiotics were serially diluted twofold across the wells of 96-well non-binding surface plates (NBS, Corning). […] Gram-positive and Gram-negative bacteria were cultured in Mueller Hinton broth (MHB) (Bacto laboratories, Cat. no. 211443) at 37 °C overnight. A sample of each culture was then diluted 40-fold in fresh MHB broth and incubated at 37 °C for 2-3 h. The resultant mid-log phase cultures were diluted to the final concentration of 5 × 10^5 CFU/mL, then 50 μL was added to each well of the compound containing 96-well plates. All the plates were covered and incubated at 37 °C for 24 h.

[2] = test system: G. lamblia BRIS/83/HEPU/106 (106); experiment: ATP-bioluminescence growth and survival assay, G. lamblia 106; assay type: cell-based; details: Giardia duodenalis, read-out: EC50 G. lamblia 106
Protocol: Compounds were tested for antiparasitic activity against E. histolytica (HM1:1MSS strain) and G. lamblia (WB, BRIS/87/HEPU/713 (713), BRIS/83/HEPU/106 (106) and the metronidazole resistant syngeneic line 713-M3 [[15,16]]) using an ATP-bioluminescence based screen for cell growth and survival [[17,18]]. Assay plates were inoculated with trophozoites (5 × 10^3 parasites/well) and incubated in the GasPak™ EZ Anaerobe Gas Generating Pouch Systems (VWR, West Chester, PA) to maintain anaerobic conditions throughout the incubation period. The assays were performed in triplicate using the CellTiter-Glo Luminescent Cell Viability Assay. Metronidazole was used as a positive control.
Trophozoites of E. histolytica strain HM1:IMSS and G. lamblia strains WB, BRIS/87/HEPU/713 (713),^10 BRIS/83/HEPU/106 (106)^11 and the metronidazole resistant syngenic line 713-M3^10,11 were axenically maintained in TYI-S-33 medium supplemented with penicillin (100 U/ml), streptomycin (100 µg/ml).^12 E. histolytica and G. lamblia trophozoites were counted using a particle counter (Beckman Coulter, Fullerton, CA). All experiments were performed using trophozoites harvested during the logarithmic phase of growth.
A three-fold serial dilution was then performed yielding a concentration range 0.25-625 µM. From this dilution plate, 4 µL were transferred into the 96-well screen plates followed by addition of 96 µL of trophozoites (5,000 parasites) to yield a final 8-point concentration range spanning 0.01- 25 µM. Assay plates were incubated for 48 h at 37 °C in the GasPak^TM EZ Anaerobe Gas Generating Pouch Systems (VWR, West Chester, PA) to maintain anaerobic condition throughout the incubation period. The assays were performed in triplicate using the CellTiter-Glo Luminescent Cell Viability Assay.^13

[3] = test system: C. difficile NAP1/027 CD26A54_S; experiment: MIC broth microdilution, C. difficile CD26A54_S; assay type: cell-based, Clostridium difficile; details: for MIC: Clostridioides difficile
[4] = 24 hr incubation, read-out: MIC C. difficile NAP1/027 CD26A54_S 24 hr
[5] = CD26A54_S, MtzS (intermediary), 48 h growth, read-out: MIC C. difficile NAP1/027 CD26A54_S 48 h

Structure (SMILES) | MIC [1] | EC50 ([2]; MtzS, purified compounds, this study) | MIC [3, 4] | MIC [3, 5] | EC50 [2] | MIC C. difficile NAP1/027 CD26A54_S 24 hr ([3]; 24 hr incubation) | MIC C. difficile NAP1/027 CD26A54_S 48 h ([3]; CD26A54_S, MtzS (intermediary), 48 h growth)
Cc1ncc([N+](=O)[O-])n1CCO [Compound 1, metronidazole] | > 32 µg/mL | 2800 nM | 1 µg/mL (≈ 5.84 µM) | 1 µg/mL (≈ 5.84 µM) |  |  | 
Cc1ncc([N+](=O)[O-])n1CCn1cc(-c2ccc(Cl)cc2)nn1 [Compound 4c, 1-(2-(2-methyl-5-nitro-1H-imidazol-1-yl)ethyl)-4-(4-chlorophenyl)-1H-1,2,3-triazole] | > 32 µg/mL |  | 1 to 2 µg/mL (≈ 3.01 to 6.01 µM) | 2 µg/mL (≈ 6.01 µM) | 890 nM |  | 
Cc1ncc([N+](=O)[O-])n1CCn1cc(CN2CCS(=O)(=O)CC2)nn1 [Compound 4o, 1-(2-(2-methyl-5-nitro-1H-imidazol-1-yl)ethyl)-4-((1,1-dioxothiomorpholin-4-yl)methyl)-1H-1,2,3-triazole] | > 32 µg/mL |  | > 64 µg/mL | > 64 µg/mL |  |  | 
Cc1ncc([N+](=O)[O-])n1CCn1cc(Cc2ccccc2)nn1 [Compound 4k, 1-(2-(2-methyl-5-nitro-1H-imidazol-1-yl)ethyl)-4-benzyl-1H-1,2,3-triazole] | > 32 µg/mL |  | 1 µg/mL (≈ 3.2 µM) | 1 µg/mL (≈ 3.2 µM) | 510 nM |  | 
Cc1ccc(-c2cn(CCn3c([N+](=O)[O-])cnc3C)nn2)cc1 [Compound 4e, 1-(2-(2-methyl-5-nitro-1H-imidazol-1-yl)ethyl)-4-(p-tolyl)-1H-1,2,3-triazole] | > 32 µg/mL |  | 1 µg/mL (≈ 3.2 µM) | 1 µg/mL (≈ 3.2 µM) | 290 nM |  | 
Cc1ncc([N+](=O)[O-])n1CCn1cc(CO)nn1 [Compound 4q, 1-(2-(2-methyl-5-nitro-1H-imidazol-1-yl)ethyl)-4-(hydroxymethyl)-1H-1,2,3-triazole] | > 32 µg/mL |  | 16 µg/mL (≈ 63.4 µM) | 16 to 32 µg/mL (≈ 63.4 to 127 µM) |  |  | 
Cc1ncc([N+](=O)[O-])n1CCn1cc(-c2ccccc2)nn1 [Compound 4a, 1-(2-(2-methyl-5-nitro-1H-imidazol-1-yl)ethyl)-4-phenyl-1H-1,2,3-triazole] | > 32 µg/mL |  | 1 µg/mL (≈ 3.35 µM) | 1 µg/mL (≈ 3.35 µM) | 280 nM |  | 
Cc1ncc([N+](=O)[O-])n1CCn1cc(CN)nn1.O=C(O)C(F)(F)F [Compound 4t, 1-(2-(2-methyl-5-nitro-1H-imidazol-1-yl)ethyl)-4-(aminomethyl)-1H-1,2,3-triazole trifluoroacetate salt] | > 32 µg/mL |  | > 64 µg/mL | > 64 µg/mL |  |  | 
Cc1ncc([N+](=O)[O-])n1CCn1cc(Cn2cccn2)nn1 [Compound 4g, 1-(2-(2-methyl-5-nitro-1H-imidazol-1-yl)ethyl)-4-((1H-pyrazol-1-yl)methyl)-1H-1,2,3-triazole] | > 32 µg/mL |  | 2 µg/mL (≈ 6.62 µM) | 2 µg/mL (≈ 6.62 µM) |  |  | 
COc1ccc(-c2cn(CCn3c([N+](=O)[O-])cnc3C)nn2)cc1 [Compound 4b, 1-(2-(2-methyl-5-nitro-1H-imidazol-1-yl)ethyl)-4-(4-methoxyphenyl)-1H-1,2,3-triazole] | > 32 µg/mL |  | 1 µg/mL (≈ 3.05 µM) | 1 µg/mL (≈ 3.05 µM) | 640 nM |  | 
Cc1ncc([N+](=O)[O-])n1CCn1cc(CCO)nn1 [Compound 4p, 1-(2-(2-methyl-5-nitro-1H-imidazol-1-yl)ethyl)-4-(2-hydroxyethyl)-1H-1,2,3-triazole] | > 32 µg/mL |  | 8 µg/mL (≈ 30 µM) | 8 µg/mL (≈ 30 µM) |  |  | 
Cc1ncc([N+](=O)[O-])n1CCn1cc(-c2ccccn2)nn1 [Compound 4h, 1-(2-(2-methyl-5-nitro-1H-imidazol-1-yl)ethyl)-4-(2-pyridinyl)-1H-1,2,3-triazole.xTFA] | > 32 µg/mL |  | 1 µg/mL | 1 µg/mL | 380 nM |  | 
Cc1ncc([N+](=O)[O-])n1CCn1cc(-c2ccsc2)nn1 [Compound 4n, 1-(2-(2-methyl-5-nitro-1H-imidazol-1-yl)ethyl)-4-(thiophen-3-yl)-1H-1,2,3-triazole] | > 32 µg/mL |  | 1 µg/mL (≈ 3.29 µM) | 1 µg/mL (≈ 3.29 µM) | 340 nM |  | 
Cc1ncc([N+](=O)[O-])n1CCn1cc(-c2ncccn2)nn1 [Compound 4j, 1-(2-(2-methyl-5-nitro-1H-imidazol-1-yl)ethyl)-4-(2-pyrimidinyl)-1H-1,2,3-triazole] | > 32 µg/mL |  | 2 µg/mL (≈ 6.66 µM) | 2 to 4 µg/mL (≈ 6.66 to 13.3 µM) |  |  | 
Cc1ncc([N+](=O)[O-])n1CCn1cc(-c2ccc(Cl)c(Cl)c2)nn1 [Compound 4d, 1-(2-(2-methyl-5-nitro-1H-imidazol-1-yl)ethyl)-4-(3,4-dichlorophenyl)-1H-1,2,3-triazole] | > 32 µg/mL |  | 1 µg/mL (≈ 2.72 µM) | 1 µg/mL (≈ 2.72 µM) | 1100 nM |  | 
Cc1ncc([N+](=O)[O-])n1CCn1cc(CN(C)Cc2ccccc2)nn1 [Compound 4m, 1-(2-(2-methyl-5-nitro-1H-imidazol-1-yl)ethyl)-4-(N-benzyl, N-methylaminomethyl)-1H-1,2,3-triazole] | > 32 µg/mL |  | 2 µg/mL (≈ 5.63 µM) | 2 µg/mL (≈ 5.63 µM) | 1100 nM |  | 
Cc1ncc([N+](=O)[O-])n1CCN=[N+]=[N-] [Compound 3, 1-(2-azidoethyl)-2-methyl-5-nitro-1H-imidazole] |  |  |  |  |  | 2 µg/mL (≈ 10.2 µM) | 2 µg/mL (≈ 10.2 µM)
Cc1ncc([N+](=O)[O-])n1CCn1cc(-c2cncnc2)nn1 [Compound 4i, 1-(2-(2-methyl-5-nitro-1H-imidazol-1-yl)ethyl)-4-(5-pyrimidinyl)-1H-1,2,3-triazole] | > 32 µg/mL |  | 1 µg/mL (≈ 3.33 µM) | 1 µg/mL (≈ 3.33 µM) |  |  | 
Cc1ncc([N+](=O)[O-])n1CCn1cc(C(O)c2ccccc2)nn1 (centres unmarked) [Compound 4l, 1-(2-(2-methyl-5-nitro-1H-imidazol-1-yl)ethyl)-4-(1-phenyl-1-hydroxylmethyl)-1H-1,2,3-triazole] | > 32 µg/mL |  | 2 µg/mL (≈ 6.09 µM) | 2 µg/mL (≈ 6.09 µM) | 2200 nM |  | 
COC(=O)c1cn(CCn2c([N+](=O)[O-])cnc2C)nn1 [Compound 4f, 1-(2-(2-methyl-5-nitro-1H-imidazol-1-yl)ethyl)-4-(methoxycarbonyl)-1H-1,2,3-triazole] | > 32 µg/mL |  | 1 µg/mL (≈ 3.57 µM) | 2 µg/mL (≈ 7.14 µM) | 2000 nM |  | 
Cc1ncc([N+](=O)[O-])n1CCn1cc(CCC(=O)O)nn1 [Compound 4r, sodium 1-(2-(2-methyl-5-nitro-1H-imidazol-1-yl)ethyl)-4-(carboxyethyl)-1H-1,2,3-triazole] | > 32 µg/mL |  | > 64 µg/mL | > 64 µg/mL |  |  | 
Cc1ncc([N+](=O)[O-])n1CCn1cc(C(=O)O)nn1 [Compound 4s, 1-(2-(2-methyl-5-nitro-1H-imidazol-1-yl)ethyl)-4-(carboxy)-1H-1,2,3-triazole] | > 32 µg/mL |  | > 64 µg/mL | > 64 µg/mL |  |  | 
